Laboratory results as given in US20240166641A1, “HETEROCYCLES AND USES THEREOF” (Kumquat Biosciences Inc., priority 2021, published 2024).

Legend:
[1] = biological target: T1, PTPN2 (Homo sapiens, UniProt P17706); assay: Phosphatase activity assay (Bio-Biochem-DiFMUP), PTPN2; format: biochemical; details: DiFMUP substrate, room temperature
T1 sequence (P17706 1-415): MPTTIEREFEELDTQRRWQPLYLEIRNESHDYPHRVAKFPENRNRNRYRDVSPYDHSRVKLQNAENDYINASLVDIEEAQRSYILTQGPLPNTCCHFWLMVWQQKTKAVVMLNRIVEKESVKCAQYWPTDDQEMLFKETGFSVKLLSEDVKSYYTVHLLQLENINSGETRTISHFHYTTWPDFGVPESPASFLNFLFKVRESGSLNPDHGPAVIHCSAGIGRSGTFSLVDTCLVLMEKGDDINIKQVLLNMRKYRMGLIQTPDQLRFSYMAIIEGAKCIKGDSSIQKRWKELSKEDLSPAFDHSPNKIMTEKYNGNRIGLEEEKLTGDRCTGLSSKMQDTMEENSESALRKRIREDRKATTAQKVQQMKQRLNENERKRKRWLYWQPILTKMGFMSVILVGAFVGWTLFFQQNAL
From the text: (§1) The selectivity and potency of a small molecule PTPN2 inhibitor as provided herein (e.g., a derivative of Formula I, II, III, IV; or sub-formulae thereof) against one or more protein tyrosine phosphatase (PTP) enzymes, and specifically against PTPN2, can be assessed in various ways. The one or more PTP enzymes comprise Mycobacterium protein tyrosine phosphatase A (mPTPA), Mycobacterium protein tyrosine phosphatase B (mPTPB), PTPN1 (i.e., PTP1B), PTPN2 (i.e., TC-PTP), SHP-1, SHP-2, FAP-1, Meg2, HePTP, Laforin, VHX, VHR, LMWPTP, Cdcl4A, LAR, CD45, PTPRG, a fragment thereof, a variant thereof, and a combination thereof. Selectivity and potency of a small molecule PTPN2 inhibitor is evaluated using a PTP activity inhibition assay. The assay is performed using a buffer comprising 50 millimolar (mM) Bis-Tris (pH=6.3), 2 mM EDTA, and 5 mM N,N′-dimethyl-N,N′-bis(mercaptoacetyl)hydrazine (DMH). The assay is performed using a phosphated substrate, e.g., 10 mM fluorescein diphosphate (FDP) that is stored at −20° C. Alternatively or in addition to, the assay is performed using 10 mM DiFMUP as a phosphated substrate. Each PTP enzyme is diluted in an enzyme dilution buffer comprising 50 mM Bis-Tris (pH=6.3), 2 mM EDTA, 5 mM DMH, 20% (vol./vol.) glycerol, and 0.01% (vol./vol.) Triton X-100.
(§2) The assay is carried out at room temperature in 96 well plates. A reaction mixture of 170 microliter (μL) of the assay buffer comprising 10 μM FDP or DiFMIUP is added to each well. A 10 μL volume of (i) a compound disclosed herein (e.g., PTPN2 inhibitor) dissolved in DMSO at one of 10 concentrations from a serial dilution or (ii) DMSO alone for control is added to each well. The reaction is initiated by adding 20 μL of a PTP enzyme (e.g., PTPN2) that is diluted in the enzyme dilution buffer. The phosphatase activity of the PTP enzyme is assessed by monitoring appearance of a fluorescent product (e.g., fluorescein monophosphate (FMP) from FDP, or 6,8-difluoro-7-hydroxyl-4-coumarin (DiFMU) from DiFMUP) continuously for about 15 to 30 minutes, using the SpectraMax® Gemini™ XPS Microplate Spectrofluorometer (Molecular Devices®) with excitation of 440 nm and emission at 530 nm (cutoff filter at 525 nm) for FMP and excitation at 360 nm and emission at 450 nm (cutoff filter at 435 nm) for DiFMU. The rate (e.g., the initial rate) of FMP or DiFMU formation is plotted against the concentration of the small molecule PTPN2 inhibitor, and the data is fitted (e.g., using a 4-parameter equation) to determine the inflection point of the fit as the IC50 of the small molecule PTPN2 inhibitor for a specific enzyme. Table 6 summarizes the IC50 values of compounds disclosed herein against PTPN2 and PTPN1.

[2] = biological target: T2, PTP1B (Homo sapiens, UniProt P18031); assay: Phosphatase activity assay (Bio-Biochem-DiFMUP), PTP1B; format: biochemical; details: DiFMUP substrate, room temperature
T2 sequence (P18031 1-435): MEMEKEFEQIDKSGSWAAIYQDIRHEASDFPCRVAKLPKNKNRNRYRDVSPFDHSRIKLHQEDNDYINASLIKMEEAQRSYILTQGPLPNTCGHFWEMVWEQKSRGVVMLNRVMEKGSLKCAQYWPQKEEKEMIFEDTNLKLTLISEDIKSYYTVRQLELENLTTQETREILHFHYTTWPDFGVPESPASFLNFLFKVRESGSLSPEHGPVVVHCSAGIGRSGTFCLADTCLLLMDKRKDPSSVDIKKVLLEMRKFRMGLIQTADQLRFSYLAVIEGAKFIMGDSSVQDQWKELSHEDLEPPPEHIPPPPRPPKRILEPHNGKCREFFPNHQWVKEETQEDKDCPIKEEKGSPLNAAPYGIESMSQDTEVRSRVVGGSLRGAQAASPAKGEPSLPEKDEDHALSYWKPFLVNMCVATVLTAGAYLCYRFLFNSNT
From the text: as §1, §2

| SMILES | IC50 [1] [nM] | IC50 [2] [nM] |
| --- | --- | --- |
| O=C1CN(c2cc3nc(OCCN4CCOCC4)ccc3cc2O)S(=O)(=O)N1 [Compound 131] | > 10000 | > 10000 |
| Cn1c(=O)c(NCc2ccccc2)cc2cc(N3CC(=O)NS3(=O)=O)c(O)cc21 [Compound 177] | ≤ 1000 | ≤ 1000 |
| CC(C)CCNc1cnc2cc(O)c(N3CC(=O)NS3(=O)=O)cc2c1 [Compound 142, 5-(7-hydroxy-3-(isopentylamino)quinolin-6-yl)-1,2,5-thiadiazolidin-3-one 1,1-dioxide] | ≤ 1000 | ≤ 1000 |
| CC(C)CCN1Cc2cc(C3CC(=O)NS3(=O)=O)c(O)cc2CC1=O (stereo not drawn) [Compound 112] | > 10000 | > 10000 |
| COc1cc2c(F)c(N3CC(=O)NS3(=O)=O)c(O)cc2n(C)c1=O [Compound 146] | ≤ 1000 | ≤ 1000 |
| Cn1c(=O)c(NCCN2CCOCC2)cc2cc(N3CC(=O)NS3(=O)=O)c(O)cc21 [Compound 127] | ≤ 1000 | ≤ 1000 |
| CN1CCc2cc(O)c(N3CC(=O)NS3(=O)=O)cc2C1=O [Compound 104] | > 10000 | > 10000 |
| O=C1CN(c2cc3nc(OCCc4ccc(F)cc4)ccc3cc2O)S(=O)(=O)N1 [Compound 189] | ≤ 1000 | ≤ 1000 |
| O=C1CN(c2c(O)cc3ccc(NCCc4ccccc4)nc3c2F)S(=O)(=O)N1 [Compound 125] | ≤ 1000 | ≤ 1000 |
| Cn1c(=O)c(NCc2ccccc2)cc2c(F)c(N3CC(=O)NS3(=O)=O)c(O)cc21 [Compound 180] | ≤ 1000 | ≤ 1000 |
| COc1cc2c(cc1N1CC(=O)NS1(=O)=O)C(=O)N(C)CC2 [Compound 101] | > 10000 | > 10000 |
| O=C1CN(c2c(O)cc3sc(C(=O)NCCc4ccccc4)cc3c2F)S(=O)(=O)N1 [Compound 198] | ≤ 1000 | ≤ 1000 |
| Cn1c(=O)c(C#N)cc2cc(N3CC(=O)NS3(=O)=O)c(O)cc21 [Compound 161] | > 10000 | > 10000 |
| CC(C)CN(C)Cc1cc(=O)n2cc(O)c(C3=CC(=O)NS3(=O)=O)cc2c1 [Compound 122] | > 10000 | > 10000 |
| O=C1C=C(c2cc3cc(Cl)cnc3cc2O)S(=O)(=O)N1 [Compound 107] | > 10000 | 1000 to 10000 |
| COC(=O)c1cc2cc(N3CC(=O)NS3(=O)=O)c(O)cc2s1 [Compound 103] | 1000 to 10000 | 1000 to 10000 |
| CC(C)CCn1ccc2cc(O)c(N3CC(=O)NS3(=O)=O)cc2c1=O [Compound 199] | > 10000 | > 10000 |
| COC(=O)c1cc2cc(N3CC(=O)NS3(=O)=O)c(OC)cc2s1 [Compound 102, methyl 5-(1,1-dioxido-4-oxo-1,2,5-thiadiazolidin-2-yl)-6-methoxybenzo[b]thiophene-2-carboxylate] | > 10000 | > 10000 |
| CC(C)Oc1cc2c(F)c(N3CC(=O)NS3(=O)=O)c(O)cc2n(C)c1=O [Compound 156] | ≤ 1000 | ≤ 1000 |
| Cn1c(=O)c(NCCCC#N)cc2cc(N3CC(=O)NS3(=O)=O)c(O)cc21 [Compound 148] | ≤ 1000 | ≤ 1000 |
| CC(C)CCCc1cc2cc(N3CC(=O)NS3(=O)=O)c(O)cc2n(C)c1=O [Compound 152] | ≤ 1000 | ≤ 1000 |

| SMILES | IC50 [1] [nM] | IC50 [2] [nM] |
| --- | --- | --- |
| CC(C)CCNc1cc2cc(N3CC(=O)NS3(=O)=O)c(O)cc2n(C2CC2)c1=O [Compound 145] | ≤ 1000 | ≤ 1000 |
| CCN1CC(Nc2cc3cc(N4CC(=O)NS4(=O)=O)c(O)cc3n(C)c2=O)C1 [Compound 174] | 1000 to 10000 | ≤ 1000 |
| CC(C)CCNc1cc2cc(N3C(C)C(=O)NS3(=O)=O)c(O)cc2n(C)c1=O (stereo not drawn) [Compound 203] | 1000 to 10000 | 1000 to 10000 |
| COc1ccc2cc(O)c(N3CC(=O)NS3(=O)=O)cc2n1 [Compound 124] | ≤ 1000 | ≤ 1000 |
| Cn1c(=O)c(N2CCCC2)cc2cc(N3CC(=O)NS3(=O)=O)c(O)cc21 [Compound 134] | 1000 to 10000 | ≤ 1000 |
| O=C1CN(c2cc3nc(C4CCOC4)ccc3cc2O)S(=O)(=O)N1 (stereo not drawn) [Compound 147] | 1000 to 10000 | ≤ 1000 |
| Cn1c(=O)c(NCCC2CCCC2)cc2c(F)c(N3CC(=O)NS3(=O)=O)c(O)cc21 [Compound 179] | ≤ 1000 | ≤ 1000 |
| Cn1c(=O)c(O)cc2c(F)c(N3CC(=O)NS3(=O)=O)c(O)cc21 [Compound 184] | 1000 to 10000 | ≤ 1000 |
| Cn1c(=O)c(NCC2(C#N)CC2)cc2cc(N3CC(=O)NS3(=O)=O)c(O)cc21 [Compound 202] | 1000 to 10000 | ≤ 1000 |
| Cn1c(=O)c(NCCOC2CCCC2)cc2cc(N3CC(=O)NS3(=O)=O)c(O)cc21 [Compound 140] | 1000 to 10000 | ≤ 1000 |
| CC(C)CCOc1ccc2cc(O)c(N3CC(=O)NS3(=O)=O)cc2n1 [Compound 182] | ≤ 1000 | ≤ 1000 |
| CC(C)CC#Cc1cc2cc(N3CC(=O)NS3(=O)=O)c(O)cc2n(C)c1=O [Compound 181] | ≤ 1000 | ≤ 1000 |
| CC(C)CCNc1ccc2cc(O)c(N3CC(=O)NS3(=O)=O)cc2n1 [Compound 187] | > 10000 | > 10000 |
| Cn1c(=O)c(NCCC#N)cc2cc(N3CC(=O)NS3(=O)=O)c(O)cc21 [Compound 164] | ≤ 1000 | ≤ 1000 |
| CCN1CCC(CNc2cc3cc(N4CC(=O)NS4(=O)=O)c(O)cc3n(C)c2=O)CC1 [Compound 171] | ≤ 1000 | ≤ 1000 |
| Cn1c(=O)c(N2CCCCC2)cc2cc(N3CC(=O)NS3(=O)=O)c(O)cc21 [Compound 169] | 1000 to 10000 | 1000 to 10000 |
| Cn1c(=O)c(NCCC2CCCCC2)cc2cc(N3CC(=O)NS3(=O)=O)c(O)cc21 [Compound 141] | ≤ 1000 | ≤ 1000 |
| CC(C)CCN1Cc2cc(N3CC(=O)NS3(=O)=O)c(O)cc2CC1=O [Compound 119, 5-(6-hydroxy-2-isopentyl-3-oxo-1,2,3,4-tetrahydroisoquinolin-7-yl)-1,2,5-thiadiazolidin-3-one 1,1-dioxide] | ≤ 1000 | ≤ 1000 |
| CC(C)CCN1Cc2cc(N3CC(=O)NS3(=O)=O)c(O)cc2N(C)C1=O [Compound 116] | 1000 to 10000 | ≤ 1000 |
| CC(C)CCN1Cc2cc(C3=CC(=O)NS3(=O)=O)c(O)cc2N(C)C1=O [Compound 108, 5-(7-hydroxy-3-isopentyl-1-methyl-2-oxo-1,2,3,4-tetrahydroquinazolin-6-yl)isothiazol-3(2H)-one 1,1-dioxide] | > 10000 | > 10000 |
| CC(C)CCCN1CCc2cc(O)c(N3CC(=O)NS3(=O)=O)cc2C1=O [Compound 105] | 1000 to 10000 | > 10000 |
